# Experimental data taken from patent US7781565B2 (priority 2006, dated 2010).
# Entries after “also recorded” stand apart in the source; their conditions may differ.
# Test system: NCI-60 cell lines
# Type: cell-based, human
Substance,Cell Line the peptide is associated with (peptide recovered from phage library selection on this NCI-60 cell line),Cell Line with which the peptide (and its tripeptide motif) is associated,Cell Line (NCI-60 cell line the peptide and its motif are associated with),Cell Line (NCI-60 cell line the peptide is associated with)
PLLREVG,SN12C Renal,,,
DGSVLVE,,Molt-4-Leukemia,,
LLRRLSW,,,SK-MEL-2 Melanoma,
FMTYGSG,,,OVCAR-4 Ovarian,
VYYRLSA,,SR Leukemia,,
LEGVRLF,,Hop-62-Lung,,
GPSSMTF,,,,COLO-205-Colon
FRALGGL,,,,SNB-75 CNS
WSGVSRL,,,,HCT-15 Colon
AEYGRVL,,,M14 Melanoma,
QARGSWL,,,OVCAR-4 Ovarian,
VRLTGVR,,,SK-OV-3-3 Ovarian,
LAAGGEL,,RPMI-8226-Leukemia,,
AGGVRDL,,,PC3 Prostate,
VRRSSKF,BT-549 Breast,,,
PVSDGLV,,,SK-OV-3-3 Ovarian,
SGHGVSA,,H23-Lung,,
PRYGVRA,,RPMI-8226-Leukemia,,
LLLLSGS,RXF393 Renal,,,
WSSTASL,,H460-Lung,,
IGASLLG,,,,SF-268 CNS
IGVRGAV,,,,MALME-3M Melanoma
AGRPGGY,,,PC3 Prostate,

Substance,Cell Line the peptide is associated with (peptide recovered from phage library selection on this NCI-60 cell line),Cell Line with which the peptide (and its tripeptide motif) is associated,Cell Line (NCI-60 cell line the peptide and its motif are associated with),Cell Line (NCI-60 cell line the peptide is associated with)
VDLRSAF,ACHN Renal,,,
DTPSAVS,,,,SF-268 CNS
PYYNGVR,,,IGROV1 Ovarian,
RAVEMGT,,H460-Lung,,
VLGMRSS,,SR Leukemia,,
FTRGGLS,,,,SNB-75 CNS
SSGGVLG,,H460-Lung,,
DNCERGV,,,UACC62 Melanoma,
ACGSGLD,,,SK-MEL-5 Melanoma,
GHYRASV,,,,HT-29 Colon
PRGMARG,BT-549 Breast,,,
WGSGRGN,,HL-60-Leukemia,,
DTLASLR,,,,HT-29 Colon
RAVGRVA,,HL-60-Leukemia,,
LFRWGGR,,,SK-MEL-28 Melanoma,
RVGAGAF,,,SK-OV-3-3 Ovarian,
YSQRSSL,,Hop-62-Lung,,
EADPGAV,,,UACC 257 Melanoma,
HAWDRGV,MDA-MB-231 Breast,,,
GRGSGGF,,,,LOX-IMVI Melanoma
TGGSLLG,,,IGROV1 Ovarian,
EGLVVFE,,,,SNB-19 CNS; also recorded: SF-539 CNS
GLREVQD,HS 578 T Breast,,,

Substance,Cell Line the peptide is associated with (peptide recovered from phage library selection on this NCI-60 cell line),Cell Line with which the peptide (and its tripeptide motif) is associated,Cell Line (NCI-60 cell line the peptide and its motif are associated with),Cell Line (NCI-60 cell line the peptide is associated with)
VAELLSM,,,OVCAR-5 Ovarian,
AYYSLRS,,,,KM-12C Colon
FPARGED,A498 Renal,,,
FLRVGEL,,Hop-62-Lung,,
VLRSGEL,,,,SF-295 CNS
GSVLGAL,,,,HT-29 Colon
LGLVHWV,MDA-MB-231 Breast,,,
LAGGVPG,,CCRF-CEM Leukemia,,
EAVSRGS,,K-562-Leukemia,,
GTPAVSY,NCI/ADR-RES Breast,,,
AGRGISQ,,,UACC62 Melanoma,
RPARGAF,ACHN Renal,,,
VGSVSVN,,A549-Lung,,
SGAGSVS,,,OVCAR-5 Ovarian,
GSVFGTP,UO31 Renal,,,
GGAVLVA,,CCRF-CEM Leukemia,,
ARLSLEL,TK-10 Renal,,,
GNYGSVL,,Hop-92-Lung,,
LLSAARF,MDA-MB-231 Breast,,,
ARGVSAP,,,,KM-12C Colon
DGPSCVI,,,UACC62 Melanoma,
RRLSYRD,,RPMI-8226-Leukemia,,
LRARGGH,,,,HT-29 Colon

Substance,Cell Line the peptide is associated with (peptide recovered from phage library selection on this NCI-60 cell line),Cell Line with which the peptide (and its tripeptide motif) is associated,Cell Line (NCI-60 cell line the peptide and its motif are associated with),Cell Line (NCI-60 cell line the peptide is associated with)
PVFRGGS,MDA-MB-231 Breast,,,
AGRRFGG,,EKVX-Lung,,
VAASESH,,Hop-62-Lung,,
LGTAVSS,,,,SF-268 CNS
GVIGRGS,,,UACC62 Melanoma,
AGIARGG,,Hop-92-Lung,,
FVGRVGE,A498 Renal,,,
FGGSGVL,,H460-Lung,,
FAGAGVR,,,SK-OV-3-3 Ovarian,
GLGNRPT,,RPMI-8226-Leukemia,,
SFWWLRS,TK-10 Renal,,,
FHVAGGS,,SR Leukemia,,
PAILRVR,UO31 Renal,,,
GGSAWWG,,,DU-145 Prostate,
NEFLGRL,,,,HCT-116 Colon
PLQRGSG,BT-549 Breast,,,
ELGLRVP,,,OVCAR-8 Ovarian,
LSVLRVL,,,IGROV1 Ovarian,
LRSYAWS,,,,SNB-19 CNS; also recorded: SF-539 CNS
RVMRGSL,MCF-7 Breast,,,
LYLLSSA,,,SK-MEL-5 Melanoma,
QVAGRER,,CCRF-CEM Leukemia,,
WRARASP,,,UACC62 Melanoma,

Substance,Cell Line the peptide is associated with (peptide recovered from phage library selection on this NCI-60 cell line),Cell Line with which the peptide (and its tripeptide motif) is associated,Cell Line (NCI-60 cell line the peptide and its motif are associated with),Cell Line (NCI-60 cell line the peptide is associated with)
GVSIRQL,,H460-Lung,,
DGGLNDC,,,OVCAR-5 Ovarian,
ILSDLVS,SN12C Renal,,,
WGSVAGI,,,,SNB-75 CNS
SNPGSGS,,,UACC62 Melanoma,
AWAGGDM,,,DU-145 Prostate,
RGARVSA,,Molt-4-Leukemia,,
AGLALTV,,,,MALME-3M Melanoma
SDVSGSS,,H322-Lung,,
GWVAVSC,,,,LOX-IMVI Melanoma
RGVKLGD,,,,SW620-Colon
AVALGGS,,,UACC 257 Melanoma,
PTGAGLL,,,IGROV1 Ovarian,
RGLGRPV,NCI/ADR-RES Breast,,,
TLGLRVP,TK-10 Renal,,,
WGVAGLG,,,,HT-29 Colon
PGAVLTV,,,,COLO-205-Colon
DLRRAGS,,,,SW620-Colon
QGLVRGG,,,OVCAR-4 Ovarian,
GTLGVLS,,,UACC62 Melanoma,
GSMHRVS,,,,SF-295 CNS
VGRLQTT,,,UACC62 Melanoma,
